IC50 data for 3 compounds are collected here from ChEMBL document CHEMBL1137024, “Acyl-CoA: cholesterol acyltransferase inhibitory activities of fatty acid amides isolated from Mylabris phalerate Pallas” (Bioorg Med Chem Lett, 2004).

Assay [1] concerns the target Sterol O-acyltransferase 2 (Homo sapiens, UniProt O75908). Nature of the assay: Inhibitory activity against human Acyl coenzyme A:cholesterol acyltransferase 2.
The target in assay [2] is T1, Sterol O-acyltransferase 1 (Rattus norvegicus, UniProt O70536).
T1 sequence (O70536 whole entry): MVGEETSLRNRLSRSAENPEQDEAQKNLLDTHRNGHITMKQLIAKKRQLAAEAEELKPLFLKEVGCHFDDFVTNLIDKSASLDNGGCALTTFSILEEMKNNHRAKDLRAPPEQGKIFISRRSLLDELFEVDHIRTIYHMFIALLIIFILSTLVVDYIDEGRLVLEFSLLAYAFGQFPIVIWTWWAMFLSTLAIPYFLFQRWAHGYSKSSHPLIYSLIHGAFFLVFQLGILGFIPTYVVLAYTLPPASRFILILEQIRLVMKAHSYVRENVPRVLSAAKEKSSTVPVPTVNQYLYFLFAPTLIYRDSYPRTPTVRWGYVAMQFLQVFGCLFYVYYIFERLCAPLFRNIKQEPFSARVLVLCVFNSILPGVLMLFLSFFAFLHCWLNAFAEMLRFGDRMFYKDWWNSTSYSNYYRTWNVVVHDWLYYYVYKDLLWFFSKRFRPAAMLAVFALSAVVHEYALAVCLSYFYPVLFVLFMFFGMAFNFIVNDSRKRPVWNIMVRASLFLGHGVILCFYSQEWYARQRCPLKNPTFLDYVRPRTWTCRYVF
The assay is described as follows: Inhibitory activity against rat liver microsomal Acyl coenzyme A:cholesterol acyltransferase.

For assay [3], the target named is T2, Sterol O-acyltransferase 1 (Homo sapiens, UniProt P35610).
T2 sequence (P35610 whole entry): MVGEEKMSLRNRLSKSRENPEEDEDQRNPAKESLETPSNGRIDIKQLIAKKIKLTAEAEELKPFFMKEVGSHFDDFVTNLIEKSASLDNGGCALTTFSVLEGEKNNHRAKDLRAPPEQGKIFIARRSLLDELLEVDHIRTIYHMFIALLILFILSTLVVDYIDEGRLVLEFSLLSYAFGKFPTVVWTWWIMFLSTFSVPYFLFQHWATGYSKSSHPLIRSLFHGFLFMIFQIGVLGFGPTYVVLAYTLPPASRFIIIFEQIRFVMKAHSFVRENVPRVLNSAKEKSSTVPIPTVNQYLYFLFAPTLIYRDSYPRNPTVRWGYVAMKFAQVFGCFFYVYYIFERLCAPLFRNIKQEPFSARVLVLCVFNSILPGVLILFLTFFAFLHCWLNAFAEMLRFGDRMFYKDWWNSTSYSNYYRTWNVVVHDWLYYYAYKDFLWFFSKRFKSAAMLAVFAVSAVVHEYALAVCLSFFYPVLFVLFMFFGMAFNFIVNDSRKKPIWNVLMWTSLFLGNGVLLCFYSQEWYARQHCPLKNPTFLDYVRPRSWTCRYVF
The assay is described as follows: Inhibitory activity against human Acyl coenzyme A:cholesterol acyltransferase 1.

The IC50 is the point on the concentration scale where inhibition reaches its midpoint.

Structures are written as SMILES.

Sterol O-acyltransferase 2, sequence (O75908 whole entry, looked up): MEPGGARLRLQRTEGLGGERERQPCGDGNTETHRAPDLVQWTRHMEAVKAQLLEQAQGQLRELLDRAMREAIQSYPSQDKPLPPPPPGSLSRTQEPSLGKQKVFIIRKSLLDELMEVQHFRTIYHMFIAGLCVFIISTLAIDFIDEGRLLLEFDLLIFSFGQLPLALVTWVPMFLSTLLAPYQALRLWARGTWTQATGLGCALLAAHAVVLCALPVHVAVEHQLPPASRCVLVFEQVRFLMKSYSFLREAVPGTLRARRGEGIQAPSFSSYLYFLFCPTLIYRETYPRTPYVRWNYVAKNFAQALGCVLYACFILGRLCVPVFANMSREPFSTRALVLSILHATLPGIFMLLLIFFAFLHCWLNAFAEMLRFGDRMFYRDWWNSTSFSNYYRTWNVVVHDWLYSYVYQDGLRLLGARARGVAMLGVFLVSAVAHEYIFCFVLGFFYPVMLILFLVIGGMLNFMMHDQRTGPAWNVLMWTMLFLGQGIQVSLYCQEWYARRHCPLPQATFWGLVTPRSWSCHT

Regarding `CCCCC/C=C\C/C=C\CCCCCCCC(=O)O` [LINOLEIC ACID], the IC50 in assay [1], in assay [2] and in assay [3] was > 1 mM each time.
As to `CCCCCCCC/C=C\CCCCCCCC(=O)O` [OLEIC ACID], the IC50 in assay [1], in assay [2] and in assay [3] was > 1 mM throughout.
For the compound `CC(=O)OC[C@@]1(C)[C@@H]2C[C@H](OC(C)=O)[C@@]3(C)Oc4cc(-c5cccnc5)oc(=O)c4[C@H](O)[C@@H]3[C@@]2(C)CC[C@@H]1OC(C)=O` [PYRIPYROPENE A], the concentration for half-maximal inhibition (IC50) in assay [2] turned out to be 0.00017 mM.
